Measurements from ChEMBL document CHEMBL4507269, “Data for DCP probe BAY-386” (2021).

What was measured:
[1] = target: T1, 5-hydroxytryptamine receptor 1A (Homo sapiens) (UniProt P08908); conditions: Compound concentration 10.0 uM
T1 sequence (whole entry): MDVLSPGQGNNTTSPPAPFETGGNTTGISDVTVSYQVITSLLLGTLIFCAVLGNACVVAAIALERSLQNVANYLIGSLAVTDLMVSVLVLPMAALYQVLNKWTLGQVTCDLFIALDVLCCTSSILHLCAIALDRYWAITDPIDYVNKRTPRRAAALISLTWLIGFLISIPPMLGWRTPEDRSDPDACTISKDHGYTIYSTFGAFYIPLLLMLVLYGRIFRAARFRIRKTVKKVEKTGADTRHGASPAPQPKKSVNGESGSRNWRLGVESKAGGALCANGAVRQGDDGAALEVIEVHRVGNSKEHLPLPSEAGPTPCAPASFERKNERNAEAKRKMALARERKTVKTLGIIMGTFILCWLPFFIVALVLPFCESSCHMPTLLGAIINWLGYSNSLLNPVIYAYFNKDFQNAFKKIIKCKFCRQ

[2] = target: Sodium-dependent dopamine transporter (Homo sapiens) (UniProt Q01959); conditions: Compound concentration 10.0 uM
[3] = target: Adenosine receptor A2a (Homo sapiens) (UniProt P29274); conditions: Compound concentration 10.0 uM
[4] = target: Purinergic P2Y (Rattus norvegicus) (UniProt O35811+Q9EPX4+P49651+Q63371+P41232+O35881+Q6GUG4); conditions: Compound concentration 10.0 uM
[5] = target: Sodium-dependent noradrenaline transporter (Homo sapiens) (UniProt P23975); conditions: Compound concentration 10.0 uM
[6] = target: Sigma non-opioid intracellular receptor 1 (Homo sapiens) (UniProt Q99720); experiment: Sigma 1 Eurofins-Panlabs radioligand binding assay; parameters: ligand concentration 8 nM; conditions: Compound concentration 10.0 uM
[7] = target: Muscarinic acetylcholine receptor M3 (Homo sapiens) (UniProt P20309); conditions: Compound concentration 10.0 uM
[8] = target: Histamine H2 receptor (Homo sapiens) (UniProt P25021); conditions: Compound concentration 10.0 uM
Rattus norvegicus [9] = species on record: Rattus norvegicus; experiment: Inhibition of Imidazoline I2, Central at 10 µM in the Eurofins-Panlabs radioligand binding assay (Eurofins_assay_241000); parameters: ligand concentration 2 nM; conditions: Compound concentration 10.0 uM
Rattus norvegicus [10] = species on record: Rattus norvegicus; experiment: Inhibition of Rolipram at 10 µM in the Eurofins-Panlabs radioligand binding assay (Eurofins_assay_268811); assay type: protein assay; parameters: ligand concentration 1.8 nM; conditions: Compound concentration 10.0 uM
[11] = target: Histamine H2 receptor (Homo sapiens) (UniProt P25021); conditions: Compound concentration 10.0 uM; remark: listed apart in the source
Platelet [12] = experiment: Inhibition of platelet aggregation (human plasma, thrombin); assay type: cell-based
[13] = target: B2 bradykinin receptor (Homo sapiens) (UniProt P30411); experiment: Bradykinin B2 Eurofins-Panlabs radioligand binding assay; conditions: Compound concentration 10.0 uM
[14] = target: T2, D(4) dopamine receptor (Homo sapiens) (UniProt P21917); experiment: Inhibition of Dopamine D4.2 at 10 µM in the Eurofins-Panlabs radioligand binding assay (Eurofins_assay_219900); parameters: ligand concentration 0.5 nM; conditions: Compound concentration 10.0 uM
T2 sequence (whole entry): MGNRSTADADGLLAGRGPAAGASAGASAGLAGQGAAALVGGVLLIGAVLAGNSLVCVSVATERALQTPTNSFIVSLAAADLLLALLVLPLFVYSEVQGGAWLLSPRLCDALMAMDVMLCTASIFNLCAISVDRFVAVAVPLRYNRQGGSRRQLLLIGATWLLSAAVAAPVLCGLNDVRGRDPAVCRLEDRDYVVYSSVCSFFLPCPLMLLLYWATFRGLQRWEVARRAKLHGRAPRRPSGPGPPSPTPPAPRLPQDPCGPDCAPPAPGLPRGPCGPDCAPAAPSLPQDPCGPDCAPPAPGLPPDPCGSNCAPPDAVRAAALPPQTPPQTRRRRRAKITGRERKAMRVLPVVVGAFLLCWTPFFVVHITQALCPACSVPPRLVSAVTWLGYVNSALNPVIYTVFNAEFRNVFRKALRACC

[15] = target: voltage-gated sodium channel, site 2 (Rattus norvegicus, UniProt F1LQQ7+O08562+O88420+O88457+P04774+P04775+P08104+P15389+P15390+Q62968); experiment: Inhibition of Sodium Channel, Site 2 at 10 µM in the Eurofins-Panlabs radioligand binding assay (Eurofins_assay_279510); assay type: protein assay; parameters: ligand concentration 5 nM, non-specific ligand with concentration 100 µM Veratridine, incubation time 60 min, incubation temperature 37 °C; conditions: male, Wistar, rat whole brain (except cerebellum) membranes, probe [3H] Batrachotoxinin, compound concentration 10 uM
[16] = target: Histamine H1 receptor (Homo sapiens) (UniProt P35367); conditions: Compound concentration 10.0 uM
[17] = target: Sigma intracellular receptor 2 (Homo sapiens, UniProt Q5BJF2); experiment: GPCRScan assay: inhibition of Sigma 2; parameters: radioligand conc. used [nm] 5.0, parental cells HEKT
Platelet [18] = experiment: Inhibition of platelet aggregation (human plasma, TRAP-6) (IC50); assay type: cell-based
[19] = target: GABA-A receptor; anion channel (Rattus norvegicus) (UniProt O09028+P15431+P18506+P18508+P19969+P20236+P23574+P23576+P28471+P28473+P30191+P62813+P63079+P63138+Q91ZM7+Q9ES14); experiment: Inhibition of GABAA, Muscimol, Central at 10 µM in the Eurofins-Panlabs radioligand binding assay (Eurofins_assay_226500); assay type: protein-complex assay; conditions: Compound concentration 10.0 uM
[20] = target: Cannabinoid receptor 1 (Homo sapiens) (UniProt P21554); conditions: Compound concentration 10.0 uM
[21] = target: Platelet-activating factor receptor (Homo sapiens) (UniProt P25105); experiment: Inhibition of Platelet Activating Factor (PAF) at 10 µM in the Eurofins-Panlabs radioligand binding assay (Eurofins_assay_265010); conditions: Compound concentration 10.0 uM
[22] = target: Glucocorticoid receptor (Homo sapiens) (UniProt P04150); experiment: Glucocorticoid Eurofins-Panlabs radioligand binding assay; conditions: Compound concentration 10.0 uM
Mus musculus = species on record: Mus musculus; experiment: Inhibition of Interleukin IL-1 at 10 µM in the Eurofins-Panlabs radioligand binding assay (Eurofins_assay_243520); parameters: ligand concentration 0.1 nM; conditions: Compound concentration 10.0 uM
[23] = target: Endothelin receptor type B (Homo sapiens) (UniProt P24530); conditions: Compound concentration 10.0 uM
[24] = target: D(3) dopamine receptor (Homo sapiens) (UniProt P35462); conditions: Compound concentration 10.0 uM
Platelet [25] = experiment: Inhibition of platelet aggregation (human plasma, ADP, Collagen); assay type: cell-based
[26] = target: Prostaglandin E2 receptor EP4 subtype (Homo sapiens) (UniProt P35408); experiment: Inhibition of Prostanoid EP4 at 10 µM in the Eurofins-Panlabs radioligand binding assay (Eurofins_assay_268420); parameters: ligand concentration 1 nM; conditions: Compound concentration 10.0 uM
Homo sapiens = species on record: Homo sapiens; experiment: Inhibition of Nicotinic Acetylcholine at compound concentration of 10.0 uM in the Eurofins-Panlabs radioligand binding assay (Eurofins_assay_258590); assay type: protein-complex assay; conditions: Compound concentration 10.0 uM
[27] = target: 5-hydroxytryptamine receptor 1E (Homo sapiens) (UniProt P28566); conditions: Compound concentration 10.0 uM
[28] = target: Kappa-type opioid receptor (Homo sapiens) (UniProt P41145); experiment: kappa (KOP) (h) Eurofins-Cerep Cellular and Nuclear Receptor Functional Assays; conditions: Compound concentration 10.0 uM
Sequence of Kappa-type opioid receptor (Homo sapiens) (P41145 whole entry): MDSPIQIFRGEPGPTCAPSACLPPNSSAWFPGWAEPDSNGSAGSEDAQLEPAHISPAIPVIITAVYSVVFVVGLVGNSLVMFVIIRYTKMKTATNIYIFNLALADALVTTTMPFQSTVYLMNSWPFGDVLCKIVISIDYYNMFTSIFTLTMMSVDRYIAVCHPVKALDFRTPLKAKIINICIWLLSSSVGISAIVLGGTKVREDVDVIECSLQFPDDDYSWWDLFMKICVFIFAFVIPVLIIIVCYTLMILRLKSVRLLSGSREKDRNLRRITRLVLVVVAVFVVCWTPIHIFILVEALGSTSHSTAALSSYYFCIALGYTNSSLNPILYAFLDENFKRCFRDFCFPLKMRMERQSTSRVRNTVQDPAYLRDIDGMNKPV

Sequence of Sigma intracellular receptor 2 (Q5BJF2 whole entry): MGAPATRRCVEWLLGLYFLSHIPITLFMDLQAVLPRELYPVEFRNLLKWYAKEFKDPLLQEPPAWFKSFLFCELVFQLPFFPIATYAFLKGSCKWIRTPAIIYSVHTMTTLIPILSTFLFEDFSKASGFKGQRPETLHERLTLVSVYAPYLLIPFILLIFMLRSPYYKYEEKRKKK
Sequence of Histamine H2 receptor (Homo sapiens) (P25021 whole entry): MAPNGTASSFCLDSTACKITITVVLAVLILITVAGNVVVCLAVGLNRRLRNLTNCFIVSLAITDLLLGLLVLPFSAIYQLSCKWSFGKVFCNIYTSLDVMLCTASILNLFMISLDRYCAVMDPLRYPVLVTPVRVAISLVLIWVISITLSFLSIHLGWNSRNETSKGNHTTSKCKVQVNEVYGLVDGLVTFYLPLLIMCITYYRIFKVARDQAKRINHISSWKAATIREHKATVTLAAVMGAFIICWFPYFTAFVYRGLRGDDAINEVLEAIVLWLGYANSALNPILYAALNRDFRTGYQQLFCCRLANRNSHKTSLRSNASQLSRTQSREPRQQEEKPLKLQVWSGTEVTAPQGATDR
Sequence of Adenosine receptor A2a (Homo sapiens) (P29274 whole entry): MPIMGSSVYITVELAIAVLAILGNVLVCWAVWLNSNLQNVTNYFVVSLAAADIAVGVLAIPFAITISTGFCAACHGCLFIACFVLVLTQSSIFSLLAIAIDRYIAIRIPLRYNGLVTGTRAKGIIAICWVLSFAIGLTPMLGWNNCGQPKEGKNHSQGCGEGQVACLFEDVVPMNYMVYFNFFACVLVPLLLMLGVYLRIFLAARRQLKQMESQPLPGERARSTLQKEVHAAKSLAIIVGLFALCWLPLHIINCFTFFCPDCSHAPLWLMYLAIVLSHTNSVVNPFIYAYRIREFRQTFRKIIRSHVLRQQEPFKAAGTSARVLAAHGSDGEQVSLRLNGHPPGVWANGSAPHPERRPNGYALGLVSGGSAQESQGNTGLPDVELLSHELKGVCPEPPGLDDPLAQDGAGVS
Sequence of Glucocorticoid receptor (Homo sapiens) (P04150 whole entry): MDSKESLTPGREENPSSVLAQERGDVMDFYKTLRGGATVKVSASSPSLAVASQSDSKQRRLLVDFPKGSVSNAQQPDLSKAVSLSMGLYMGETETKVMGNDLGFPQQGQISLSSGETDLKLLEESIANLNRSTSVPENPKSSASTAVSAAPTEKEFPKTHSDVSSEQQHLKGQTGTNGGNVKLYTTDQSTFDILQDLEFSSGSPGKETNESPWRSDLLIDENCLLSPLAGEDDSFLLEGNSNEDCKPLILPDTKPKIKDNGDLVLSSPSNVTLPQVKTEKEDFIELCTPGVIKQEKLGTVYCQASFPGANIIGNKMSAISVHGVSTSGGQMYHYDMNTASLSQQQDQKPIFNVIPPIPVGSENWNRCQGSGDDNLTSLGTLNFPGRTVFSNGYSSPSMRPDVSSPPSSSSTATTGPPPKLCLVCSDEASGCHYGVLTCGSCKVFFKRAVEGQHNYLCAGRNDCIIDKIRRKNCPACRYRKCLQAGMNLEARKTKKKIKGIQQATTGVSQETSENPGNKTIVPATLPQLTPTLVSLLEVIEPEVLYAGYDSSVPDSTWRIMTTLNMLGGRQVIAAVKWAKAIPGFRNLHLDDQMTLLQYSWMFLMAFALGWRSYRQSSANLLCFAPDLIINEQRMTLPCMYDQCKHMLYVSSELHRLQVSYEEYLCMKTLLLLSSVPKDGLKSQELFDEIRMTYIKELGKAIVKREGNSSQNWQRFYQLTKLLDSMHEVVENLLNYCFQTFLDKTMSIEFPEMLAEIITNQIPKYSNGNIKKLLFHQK
Sequence of Sigma non-opioid intracellular receptor 1 (Homo sapiens) (Q99720 whole entry): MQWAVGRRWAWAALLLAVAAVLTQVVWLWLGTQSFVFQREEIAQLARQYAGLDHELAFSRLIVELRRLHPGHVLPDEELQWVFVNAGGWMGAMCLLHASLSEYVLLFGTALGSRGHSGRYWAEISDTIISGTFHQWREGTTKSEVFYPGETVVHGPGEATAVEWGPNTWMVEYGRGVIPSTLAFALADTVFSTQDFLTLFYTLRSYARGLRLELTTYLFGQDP
Sequence of Platelet-activating factor receptor (Homo sapiens) (P25105 whole entry): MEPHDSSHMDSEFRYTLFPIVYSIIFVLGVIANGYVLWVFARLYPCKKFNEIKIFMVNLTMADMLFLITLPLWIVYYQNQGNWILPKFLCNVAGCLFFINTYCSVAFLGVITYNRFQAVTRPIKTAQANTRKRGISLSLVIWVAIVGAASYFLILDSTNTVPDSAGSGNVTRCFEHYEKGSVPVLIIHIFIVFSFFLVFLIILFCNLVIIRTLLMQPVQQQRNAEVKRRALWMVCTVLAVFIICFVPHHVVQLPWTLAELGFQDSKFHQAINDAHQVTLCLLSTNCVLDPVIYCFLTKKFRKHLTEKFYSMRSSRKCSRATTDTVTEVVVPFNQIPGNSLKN
Sequence of D(3) dopamine receptor (Homo sapiens) (P35462 whole entry): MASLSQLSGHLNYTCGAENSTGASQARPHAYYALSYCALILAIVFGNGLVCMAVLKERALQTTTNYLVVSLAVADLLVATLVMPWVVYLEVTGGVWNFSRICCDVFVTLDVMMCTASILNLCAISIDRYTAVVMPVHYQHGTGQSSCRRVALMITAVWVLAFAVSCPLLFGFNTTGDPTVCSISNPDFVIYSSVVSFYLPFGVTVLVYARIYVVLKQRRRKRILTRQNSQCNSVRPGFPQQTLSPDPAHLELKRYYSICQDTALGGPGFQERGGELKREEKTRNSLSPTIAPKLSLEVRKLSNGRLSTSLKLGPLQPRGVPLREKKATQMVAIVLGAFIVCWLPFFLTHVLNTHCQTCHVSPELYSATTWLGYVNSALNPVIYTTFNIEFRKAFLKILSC
Sequence of Prostaglandin E2 receptor EP4 subtype (Homo sapiens) (P35408 whole entry): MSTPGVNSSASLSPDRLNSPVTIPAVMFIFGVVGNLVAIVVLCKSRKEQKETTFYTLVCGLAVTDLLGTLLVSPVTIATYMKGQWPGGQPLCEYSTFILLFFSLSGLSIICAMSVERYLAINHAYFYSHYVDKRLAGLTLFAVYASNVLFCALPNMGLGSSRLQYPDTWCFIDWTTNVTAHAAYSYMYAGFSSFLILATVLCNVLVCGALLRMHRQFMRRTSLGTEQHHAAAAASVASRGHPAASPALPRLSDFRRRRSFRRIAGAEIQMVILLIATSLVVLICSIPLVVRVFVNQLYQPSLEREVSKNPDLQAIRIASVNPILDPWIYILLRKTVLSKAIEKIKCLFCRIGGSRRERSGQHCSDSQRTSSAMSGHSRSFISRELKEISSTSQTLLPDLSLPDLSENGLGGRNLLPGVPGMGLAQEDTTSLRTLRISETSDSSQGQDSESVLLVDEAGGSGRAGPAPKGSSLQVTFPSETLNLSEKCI
Sequence of Endothelin receptor type B (Homo sapiens) (P24530 whole entry): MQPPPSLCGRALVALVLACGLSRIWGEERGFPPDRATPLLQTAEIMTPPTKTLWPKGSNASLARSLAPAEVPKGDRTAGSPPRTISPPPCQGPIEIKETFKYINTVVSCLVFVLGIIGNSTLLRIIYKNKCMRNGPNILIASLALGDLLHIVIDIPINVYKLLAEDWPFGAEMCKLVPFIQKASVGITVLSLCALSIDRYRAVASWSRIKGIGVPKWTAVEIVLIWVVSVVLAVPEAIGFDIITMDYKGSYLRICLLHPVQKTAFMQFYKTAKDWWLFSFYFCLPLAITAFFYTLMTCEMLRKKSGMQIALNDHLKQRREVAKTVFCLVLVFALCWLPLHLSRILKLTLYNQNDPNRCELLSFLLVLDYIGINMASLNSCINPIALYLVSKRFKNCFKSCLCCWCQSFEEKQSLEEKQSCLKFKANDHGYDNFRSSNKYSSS
Sequence of Histamine H1 receptor (Homo sapiens) (P35367 whole entry): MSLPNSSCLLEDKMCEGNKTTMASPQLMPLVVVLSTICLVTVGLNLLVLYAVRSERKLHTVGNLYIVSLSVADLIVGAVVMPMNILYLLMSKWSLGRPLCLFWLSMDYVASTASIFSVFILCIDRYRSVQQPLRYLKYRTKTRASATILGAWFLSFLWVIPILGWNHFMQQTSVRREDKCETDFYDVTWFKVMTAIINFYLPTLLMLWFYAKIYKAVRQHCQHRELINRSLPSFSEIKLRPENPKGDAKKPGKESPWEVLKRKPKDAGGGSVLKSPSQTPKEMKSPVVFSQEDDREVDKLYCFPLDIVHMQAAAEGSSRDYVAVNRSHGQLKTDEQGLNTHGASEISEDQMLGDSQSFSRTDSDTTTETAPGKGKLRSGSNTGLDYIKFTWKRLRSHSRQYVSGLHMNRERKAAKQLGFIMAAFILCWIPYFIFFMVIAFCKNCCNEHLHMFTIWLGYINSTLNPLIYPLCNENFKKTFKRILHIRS
Sequence of B2 bradykinin receptor (Homo sapiens) (P30411 whole entry): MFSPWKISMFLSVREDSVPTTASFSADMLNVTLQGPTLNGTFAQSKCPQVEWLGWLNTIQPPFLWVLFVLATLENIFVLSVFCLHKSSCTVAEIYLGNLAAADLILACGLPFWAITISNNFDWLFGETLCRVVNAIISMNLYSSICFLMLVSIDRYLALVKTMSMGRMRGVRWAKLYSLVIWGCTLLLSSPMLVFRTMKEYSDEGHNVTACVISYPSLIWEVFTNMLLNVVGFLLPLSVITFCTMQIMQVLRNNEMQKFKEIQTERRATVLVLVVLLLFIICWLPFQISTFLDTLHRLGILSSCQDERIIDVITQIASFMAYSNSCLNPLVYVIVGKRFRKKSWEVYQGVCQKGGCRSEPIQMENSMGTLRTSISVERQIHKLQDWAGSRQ

O=C(N1CCS(=O)(=O)CC1)N1C[C@H](c2ccc(OC(F)(F)F)cc2)C[C@H](c2nc(C3CC3)no2)C1 [BAY-386]
inhibition [1]: -9% | inhibition [2]: 10% | inhibition [3]: 0% | inhibition [4]: 12% | inhibition [5]: -1.24% | inhibition [6]: 12% | inhibition [7]: -2% | inhibition [8]: 9.25% | inhibition (Rattus norvegicus [9]): 0% | inhibition (Rattus norvegicus [10]): 3% | inhibition [11]: -3% | IC50 (Platelet [12]): 140 nM | inhibition [13]: 11% | inhibition [14]: -9% | inhibition at 60 min, 10 µM [15]: 55% | inhibition [16]: 0% | Ki ([17]; read-out: Ki): 1200 nM | Ki ([17]; read-out: pKi (converted)): 1150 nM | IC50 (Platelet [18]): 430 nM | inhibition [19]: 10% | inhibition [20]: 88% | inhibition [21]: 0% | inhibition [22]: 9% | inhibition (Mus musculus): 16% | inhibition [23]: -4% | inhibition [24]: -1% | IC50 (Platelet [25]): > 100000 nM (not active) | inhibition [26]: 1% | inhibition (Homo sapiens): -4%

Cc1noc([C@H]2C[C@@H](c3ccc(C(F)(F)F)cc3)CN(C(=O)N3CCS(=O)(=O)C3)C2)n1 [BAY-448]
inhibition [27]: 21.5% | % Inhibition of Control Agonist Response (Mean n=2) [28]: 1.3% | % of Control Agonist Response (Mean n=2) [28]: 9%
